One assay has as its system S. aureus. The experiment in a line: Minimal Inhibitory Concentration (MIC) determination, 96 well plates. In kind it is cell-based, Staphylococcus aureus. The conditions noted are these: Staphylococcus aureus; HBI medium, 16 to 18 hours at 37°C; read-out: MIC (µg/ml) S. aureus. As to the method: (§1) The following methods were used to characterize representative compounds. Minimal Inhibitory Concentration (MIC) determinations. MIC values were determined in 96 well plates, with bacterial growth monitored at OD 600 nm in 200µl following an initial bacterial seeding at approximately 1x10^5 colony forming units (CFU)/ml. Each drug is evaluated at five concentrations, with five data points at each dilution. MIC values (µg/ml) were determined against actively growing cultures in Heart-Brain Infusion (HBI) medium. Cell growth in cultures supplemented with a test compound was calculated as a percent of control at OD 600 nm after 16 to 18 hours at 37°C. This plate format conserves test compound and provides precise, quantitative data with low standard deviation determinations. Polymerase IIIC (Pol IIIC) assay. DNA polymerase activity (or inhibition thereof) was measured in a 96-well plate format. B. subtilis Pol IIIC was isolated as described by Hammond and Brown (Protein Expr. Purif., 3: 65-70 (1992)). Each 25 µl assay contained 30 mM Tris, pH 7.5, 10 mM magnesium acetate, 4 mM dithiothreitol, 20% glycerol, with 25 µM dATP, dCTP, dGTP and 10 µM dTTP (^3H-labelled at 1.44 Ci/mmole) and 0.4 mg/ml activated calf thymus DNA as substrates, as described previously (see Barnes et al, op. cit). Assays were initiated by the addition of 0.025 to 0.06 units of enzyme 1 unit is the amount required to incorporate 250 pmoles of [^3H] dTMP in a standard assay), incubated for 10 minutes at 30°C and terminated by the addition of 200 µl of cold 10% trichloroacetic acid (TCA),10 mM sodium pyrophosphate. Precipitated labeled DNA was collected on glass fiber filter plates, washed, dried, and counted in a liquid scintillation counter. Determination of Ki values. DNA polymerase activity was measured in a 96-well plate format in the absence of dGTP or dATP, depending on the structure of the test compound. Each 25 µl assay contained 30 mM Tris, pH 7.5, 10 mM magnesium acetate, 4 mM dithiothreitol, 20% glycerol, with 25 µM dATP, dCTP, and 10 µM dTTP (^3H-labelled at 1.44 Ci/mmole) and 0.4 mg/ml activated calf thymus DNA as substrates, as described previously. To each well were added 2 µl of compound solution to give final concentrations ranging from 20 - 0.027 µg/ml in the assay. Assays were initiated by the addition of 0.025 to 0.06 units of enzyme (1 unit is the amount required to incorporate 250 pmoles of [^3H] dTMP in a standard assay), incubated for 10 minutes at 30 °C and terminated by the addition of 200 µl of cold 10% trichloroacetic acid, 10 mM sodium pyrophosphate. Precipitated labeled DNA was collected on glass fiber filter plates, washed, dried, and counted in a liquid scintillation counter. Ki is the concentration of test compound that reduces the control polymerase IIIC activity by 50 percent.
(§2) MIC values were determined for the Gram positive bacteria Bacillus subtilis, Staphylococcus aureus (two strains), Enterococcus fecalis, Enterococcus fecium, and for the Gram negative bacterium Escherichia coli.

The test system of another assay is E. coli. The description is as above. In kind it is cell-based, Escherichia coli. The conditions noted are these: Escherichia coli, read-out: MIC (µg/ml) E. coli. As to the method:
as §1, §2

In another assay the test system is E. fecium. Described as above. In kind it is cell-based, Enterococcus fecium. The note with it: Enterococcus; HBI medium, 16 to 18 hours at 37°C; read-out: MIC (µg/ml) E. fecium. The procedure:
as §1, with “This plate format conserves test compound and provides precise, quantitative data with low standard deviation determinations.” left out, “To each well were added 2 µl of compound solution to give final concentrations ranging from 20 - 0.027 µg/ml in the assay.” left out
as §2

The subject of a further assay is S.aureus (Smith). The description is as above. The note with it: Staphylococcus aureus; HBI medium, 16 to 18 hours at 37°C; read-out: MIC (µg/ml) S.aureus (Smith). In kind it is cell-based, Staphylococcus aureus. The procedure:
as §1, with “This plate format conserves test compound and provides precise, quantitative data with low standard deviation determinations.” left out, “To each well were added 2 µl of compound solution to give final concentrations ranging from 20 - 0.027 µg/ml in the assay.” left out
as §2

For a further assay, the system named is B. subtilis. The description is as above. In kind it is cell-based, Bacillus subtilis. The note with it: Bacillus subtilis; HBI medium, 16 to 18 hours at 37°C; read-out: MIC (µg/ml) B. subtilis. As to the method: as §1, with “This plate format conserves test compound and provides precise, quantitative data with low standard deviation determinations.” left out, “To each well were added 2 µl of compound solution to give final concentrations ranging from 20 - 0.027 µg/ml in the assay.” left out
as §2

The test system of the next assay is E. fecalis. The description is as above. In kind it is cell-based, Enterococcus fecalis. The conditions noted are these: Enterococcus; HBI medium, 16 to 18 hours at 37°C; read-out: MIC (µg/ml) E. fecalis. As to the method:
as §1, with “This plate format conserves test compound and provides precise, quantitative data with low standard deviation determinations.” left out, “To each well were added 2 µl of compound solution to give final concentrations ranging from 20 - 0.027 µg/ml in the assay.” left out
as §2

In another assay the target is T1, B. subtilis Pol IIIC (Bacillus subtilis, UniProt P13267).
T1 construct: made in house
In words: Polymerase IIIC (Pol IIIC) assay, determination of Ki values. Format: biochemical. The note with it: Ki (µM) Pol IIIC, assay in absence of dGTP or dATP; Ki is the concentration that reduces control polymerase IIIC activity by 50 percent. As to the method: as §1, with “This plate format conserves test compound and provides precise, quantitative data with low standard deviation determinations.” left out, “To each well were added 2 µl of compound solution to give final concentrations ranging from 20 - 0.027 µg/ml in the assay.” left out

Where [1] appears, read: HBI medium, 16 to 18 hours at 37°C.

Each structure is given as a SMILES string. Values after ≈ are worked out from the molar mass of the structure shown. Where two headings read alike, the source gives them in different places. Bounds are passed on as bounds.

In EP1401829B1, “NOVEL HETEROCYCLIC ANTIBACTERIAL COMPOUNDS” (Microbiotix, Inc., priority 2001, dated 2002) one finds MIC and Ki data, which are given here for 8 compounds.

T1 sequence (P13267 whole entry): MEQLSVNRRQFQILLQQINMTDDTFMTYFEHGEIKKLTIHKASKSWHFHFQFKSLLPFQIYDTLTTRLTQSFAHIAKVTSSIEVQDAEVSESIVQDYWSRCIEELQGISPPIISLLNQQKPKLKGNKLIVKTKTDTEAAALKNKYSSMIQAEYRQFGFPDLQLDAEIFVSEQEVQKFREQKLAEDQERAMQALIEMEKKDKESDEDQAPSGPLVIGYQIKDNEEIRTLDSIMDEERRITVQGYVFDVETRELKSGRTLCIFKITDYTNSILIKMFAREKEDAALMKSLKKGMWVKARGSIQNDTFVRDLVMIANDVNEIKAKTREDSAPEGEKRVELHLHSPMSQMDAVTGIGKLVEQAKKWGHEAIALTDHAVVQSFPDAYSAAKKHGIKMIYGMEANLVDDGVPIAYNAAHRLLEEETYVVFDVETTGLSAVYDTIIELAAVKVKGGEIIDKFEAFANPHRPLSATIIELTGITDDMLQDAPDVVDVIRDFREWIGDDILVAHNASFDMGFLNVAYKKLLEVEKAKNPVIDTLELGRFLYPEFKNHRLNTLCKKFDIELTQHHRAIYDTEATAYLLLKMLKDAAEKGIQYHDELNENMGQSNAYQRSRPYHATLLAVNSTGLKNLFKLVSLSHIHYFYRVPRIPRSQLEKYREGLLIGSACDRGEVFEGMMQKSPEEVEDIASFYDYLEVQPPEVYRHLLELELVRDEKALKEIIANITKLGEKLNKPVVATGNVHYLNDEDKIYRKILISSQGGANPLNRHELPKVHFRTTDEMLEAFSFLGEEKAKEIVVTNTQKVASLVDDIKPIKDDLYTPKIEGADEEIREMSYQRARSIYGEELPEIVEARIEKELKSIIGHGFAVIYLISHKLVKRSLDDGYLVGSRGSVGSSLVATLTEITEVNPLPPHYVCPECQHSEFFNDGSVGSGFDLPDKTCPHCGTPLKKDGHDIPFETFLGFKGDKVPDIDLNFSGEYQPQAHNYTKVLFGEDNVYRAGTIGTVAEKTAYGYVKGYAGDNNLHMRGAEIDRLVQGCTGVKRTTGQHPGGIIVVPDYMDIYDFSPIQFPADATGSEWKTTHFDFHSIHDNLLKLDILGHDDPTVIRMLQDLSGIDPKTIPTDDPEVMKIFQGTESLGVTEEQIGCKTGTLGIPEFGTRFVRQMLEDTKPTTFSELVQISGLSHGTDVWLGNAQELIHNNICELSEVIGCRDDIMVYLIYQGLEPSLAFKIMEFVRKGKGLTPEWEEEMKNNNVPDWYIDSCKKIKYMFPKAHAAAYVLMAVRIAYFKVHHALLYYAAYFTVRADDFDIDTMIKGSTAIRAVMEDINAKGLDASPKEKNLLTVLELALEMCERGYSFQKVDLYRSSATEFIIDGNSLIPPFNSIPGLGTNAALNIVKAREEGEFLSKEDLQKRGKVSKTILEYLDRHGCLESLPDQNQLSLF

What is called Ki is a measure of affinity in units of concentration, obtained from inhibition or displacement. The low end stands for higher affinity, the high end for lower affinity. With `CCc1cc(Nc2cc(=O)n(CCCCCN3CCCC4CN(c5cc6c(cc5F)c(=O)c(C(=O)O)cn6CC)CC43)c(=O)[nH]2)ccc1C` (centres unmarked) [Compound 80, 3-{5-[1-(1-ethyl-3-carboxy-4-oxo-6-fluoro-7-quinolyl)-3-(1,3-diazabicyclononyl)]pentyl}-6-(3-ethyl-4-methylanilino)uracil], the MIC came to 7.5 µg/mL (≈ 11.1 µM) with S. aureus; 0.8 µg/mL (≈ 1.19 µM) in the assay on E. coli; 20 µg/mL (≈ 29.7 µM) in the assay on E. fecium; 5 µg/mL (≈ 7.43 µM) with S.aureus (Smith); 2.5 µg/mL (≈ 3.72 µM) in the assay with B. subtilis; 12.5 µg/mL (≈ 18.6 µM) in the assay on E. fecalis. In addition, at B. subtilis Pol IIIC, the Ki was 0.037 µM.
Regarding `CCc1cc(Nc2cc(=O)n(CCCCCN3CCC4CN(c5cc6c(cc5F)c(=O)c(C(=O)O)cn6C5CC5)CC43)c(=O)[nH]2)ccc1C` (centres unmarked) [Compound 81, 3-{5-[1-(1-cyclopropyl-3-carboxy-4-oxo-6-fluoro-7-quinolyl)-3-(1,3-diazabicyclooctyl)]pentyl}-6-(3-ethyl-4-methylanilino)uracil], the MIC in the assay on S. aureus was 5 µg/mL (≈ 7.45 µM); in the assay with E. coli (setting [1]), over 80 µg/mL; in the assay with E. fecium it was 12.5 µg/mL (≈ 18.6 µM); in the assay on S.aureus (Smith), 2.5 µg/mL (≈ 3.73 µM); with B. subtilis, 1.25 µg/mL (≈ 1.86 µM); in the assay with E. fecalis it was 3.7 µg/mL (≈ 5.52 µM). This compound displayed an inhibition constant (Ki) on B. subtilis Pol IIIC of 0.04 µM.
Regarding `CCc1cc(Nc2cc(=O)n(CCCCCN3CCCC4CN(c5cc6c(cc5F)c(=O)c(C(=O)O)cn6C5CC5)CC43)c(=O)[nH]2)ccc1C` (centres unmarked) [Compound 82, 3-{5-[1-(1-cyclopropyl-3-carboxy-4-oxo-6-fluoro-7-quinolyl)-3-(1,3-diazabicyclononyl)]pentyl}-6-(3-ethyl-4-methylanilino)uracil], the MIC in the assay on S. aureus is 2.5 µg/mL (≈ 3.65 µM); in the assay with E. coli (setting [1]), over 80 µg/mL; with E. fecium it was over 80 µg/mL; with S.aureus (Smith), 1.25 µg/mL (≈ 1.83 µM); in the assay with B. subtilis, 1.25 µg/mL (≈ 1.83 µM); with E. fecalis it was 20 µg/mL (≈ 29.2 µM). At B. subtilis Pol IIIC, this compound returned an inhibition constant (Ki) of 0.041 µM.
Take `CCc1cc(Nc2cc(=O)n(CCCCCNC3CCN(c4cc5c(cc4F)c(=O)c(C(=O)O)cn5C4CC4)C3)c(=O)[nH]2)ccc1C` (centres unmarked) [Compound 83, 3-{5-[1-(1-cyclopropyl-3-carboxy-4-oxo-6-fluoro-7-quinolyl)-3-(pyrrolidinylamino)]pentyl}-6-(3-ethyl-4-methylanilino)uracil]: the MIC in the assay on S. aureus is 20 µg/mL (≈ 31 µM); in the assay on E. coli (setting [1]) it was over 80 µg/mL; with E. fecium, 40 µg/mL (≈ 62 µM); with S.aureus (Smith) it was 5 µg/mL (≈ 7.75 µM); in the assay on B. subtilis, 3.7 µg/mL (≈ 5.74 µM); in the assay with E. fecalis, 5 µg/mL (≈ 7.75 µM). The inhibition constant (Ki) on B. subtilis Pol IIIC is 0.041 µM.
Take `CCc1cc(Nc2cc(=O)n(CCCCCN3CCOC4CN(c5cc6c(cc5F)c(=O)c(C(=O)O)cn6C5CC5)CC43)c(=O)[nH]2)ccc1C` (centres unmarked) [Compound 84, 3-{5-[1-(1-cyclopropyl-3-carboxy-4-oxo-6-fluoro-7-quinolyl)-3-(5-oxa-1,3-diazabicyclononyl)]pentyl}-6-(3-ethyl-4-methylanilino)uracil]: the MIC in the assay with S. aureus is 1.25 µg/mL (≈ 1.82 µM); with E. coli (setting [1]), over 80 µg/mL; with E. fecium, 25 µg/mL (≈ 36.4 µM); in the assay with S.aureus (Smith), 0.625 µg/mL (≈ 0.91 µM); with B. subtilis it was 0.313 µg/mL (≈ 0.456 µM); in the assay with E. fecalis, 2.5 µg/mL (≈ 3.64 µM). Moreover, affinity on B. subtilis Pol IIIC was put at a Ki of 0.033 µM.
With `CCc1cc(Nc2cc(=O)n(CCCCCN3CCOC4CN(c5c(F)cc6c(=O)c(C(=O)O)cn(CC)c6c5F)CC43)c(=O)[nH]2)ccc1C` (centres unmarked) [Compound 85, 3-{5-[1-(1-ethyl-3-carboxy4-oxo-6,8-difluoro-7-quinolyl)-3-(5-oxa-1,3-diazabicyclononyl)]pentyl)-6-(3-ethyl-4-methylanilino)uracil], the MIC was 5 µg/mL (≈ 7.22 µM) with S. aureus; over 80 µg/mL with E. coli (setting [1]); 12.5 µg/mL (≈ 18 µM) in the assay with E. fecium; 6.1 µg/mL (≈ 8.81 µM) in the assay with S.aureus (Smith); 0.313 µg/mL (≈ 0.452 µM) with B. subtilis; 7.5 µg/mL (≈ 10.8 µM) with E. fecalis. On B. subtilis Pol IIIC, this compound registered a Ki of 0.059 µM.
In the case of `CCc1cc(Nc2cc(=O)n(CCCCCN3CC4CN(c5cc6c(cc5F)c(=O)c(C(=O)O)cn6C5CC5)CC4C3)c(=O)[nH]2)ccc1C` (centres unmarked) [Compound 86, 3-{5-[1-(1-cyclopropyl-3-carboxy-4-oxo-6-fluoro-7-quinolyl)-4-(1,4-diazabicyclooctyl)]pentyl}-6-(3-ethyl-4-methylanilino)uracil], the MIC in the assay on S. aureus is 5 µg/mL (≈ 7.45 µM); in the assay with E. coli (setting [1]) it was over 80 µg/mL; with E. fecium, 40 µg/mL (≈ 59.6 µM); with S.aureus (Smith) it was 2.5 µg/mL (≈ 3.73 µM); in the assay on B. subtilis, 2.5 µg/mL (≈ 3.73 µM); in the assay with E. fecalis it was 10 µg/mL (≈ 14.9 µM). This compound also came in with a Ki at B. subtilis Pol IIIC of 0.054 µM.
`CCc1cc(Nc2cc(=O)n(CCCCN3CCOC4CN(c5cc6c(cc5F)c(=O)c(C(=O)O)cn6C5CC5)CC43)c(=O)[nH]2)ccc1C` (centres unmarked) [Compound 87, 3-{4-[1-(1-cyclopropyl-3-carboxy-4-oxo-6-fluoro-7-quinolyl)-3-(5-oxa-1,3-diazabicyclononyl)]butyl}-6-(3-ethyl-4-methylanilino)uracil]: the MIC in the assay with S. aureus was 1.87 µg/mL (≈ 2.78 µM); in the assay with E. coli (setting [1]), over 40 µg/mL; in the assay with E. fecium it was 7.5 µg/mL (≈ 11.1 µM); with S.aureus (Smith), 0.625 µg/mL (≈ 0.929 µM); in the assay with B. subtilis, 0.313 µg/mL (≈ 0.465 µM); in the assay on E. fecalis, 2.5 µg/mL (≈ 3.72 µM). On B. subtilis Pol IIIC, this compound had an inhibitory constant (Ki) of 0.088 µM.
